Each structure is given as a SMILES string. Residues, ends and D or L forms follow the SMILES beside them. *: point of attachment. Cbz = O=C(OCc1ccccc1)*

Results on 2 compounds are retold here after patent US20250381245A1, “METHODS AND COMPOSITIONS OF TREATING CANCER BY MODULATING PALMITOYLATION OF FLOTILLIN-1” (BOARD OF REGENTS, THE UNIVERSITY OF TEXAS SYSTEM, priority 2022, published 2025).

The subject of the assay is flotillin-1. Kind of assay: Flotillin-1 protein level by western blot after chemical inhibition of palmitoylation in triple-negative breast cancer cell lines. Format: cell-based. The following applies: MDA-MB-231 and SUM 159 triple-negative breast cancer cell lines. How it is done:
MDA-MB-231 and SUM 159 triple-negative breast cancer cell lines were treated with drug vehicle (DMSO), (B, C) global palmitoylation inhibitor (2-BP), or 2-BP+a proteasomal inhibitor (MG-132).
Protein lysates were lysed in a 1% SDS lysis buffer containing 2 mM EDTA and 20 mM Tris-HCl (PH 6.8) for 5 minutes and scraped into 1.5 mL collection tubes. Lysates were sonicated using horn sonification for 3×20 seconds each and allowed to recover on ice in between each sonification. Lysates were centrifuged for 5 minutes at 10,000 rpm at 4° C. and supernatants subjected to protein quantification by BCA assay. Lysates were then diluted to 50 ug, resolubilized in 4×SDS loading buffer (200 mM Tris-HCL, 6.8 PH, 8% SDS, 40% glycerol, 0.4% bromophenol blue) and boiled at 95° C. for 7 minutes. Boiled samples were resolved on a 10% SDS-PAGE gel and transferred to a nitrocellulose membrane. Transferred membranes were blocked for 1 hour in 5% non-fat dairy milk (NFDM). Blocked membranes were washed with 1× tris buffer saline+0.1% tween-20 (TBST) prior to the addition of the diluted primary antibody overnight at 4° C. The following day, membranes were washed thrice with TBST for 5 minutes each prior to the addition of rabbit (1:3000) (Cell Signaling Technologies, #7074) or mouse IgG (1:5000) secondary horse radish peroxidase (HRP) conjugated antibody diluted in 5% NFDM for 1 hour. […]
In general terms: A western blot detects proteins with antibodies after separation by electrophoresis.

With `CCCCCCCCCCCCCCC(Br)C(=O)O` (centres unmarked) [2-BP, 2-bromopalmitate], the flotillin-1 protein levels entry (global palmitoylation inhibitor vs drug vehicle (DMSO)) is reported as “significantly reduces flotillin-1 protein levels”.
As for `CC(C)C[C@@H](C=O)NC(=O)[C@H](CC(C)C)NC(=O)[C@H](CC(C)C)NC(=O)OCc1ccccc1` [MG-132] (Cbz-Leu-Leu-Leu-aldehyde), the “flotillin-1 protein levels upon proteasomal inhibition” value (2-BP + proteasomal inhibitor (MG-132) vs 2-BP alone) is on record as “restored”.
